{"source": "ChEMBL document CHEMBL6096654", "about": "“Allosteric inhibition of PTP1B by bromocatechol-chalcone derivatives” (Eur J Med Chem, 2025)", "key": {"Mus musculus [1]": {"tested_on": "Mus musculus", "assay": "Hypoglycemic activity in BKD db/db mouse assessed as increase in insulin receptor phosphorylation in epididymal white adipose tissue at 40 to 80 mg/kg/day, po for 8 weeks by Western blot analysis", "format": "functional, organism-based", "conditions": "dose 40-80 mg/kg/day"}, "Mus musculus [2]": {"tested_on": "Mus musculus", "assay": "Hypoglycemic activity in BKD db/db mouse assessed as increase in AKT phosphorylation in epididymal white adipose tissue at 40 to 80 mg/kg/day, po for 8 weeks by Western blot analysis", "format": "functional, organism-based", "conditions": "dose 40-80 mg/kg/day"}, "[3]": {"assay": "Acute toxicity in Kunming mouse assessed as change in cell morphology of kidney at 2000 mg/kg, po measured for 14 days by H and E staining based analysis", "format": "organism-based", "conditions": "in vivo, 336 h, time 14 day"}, "C2C12": {"tested_on": "C2C12", "assay": "Inhibition of insulin-resistance in insulin-resistant mouse C2C12 cells assessed as increase in insulin receptor phosphorylation pretreated for 24 hrs followed by compound washout and further addition of insulin measured after 20 mins by Western blot analysis", "format": "functional, cell-based", "conditions": "dose 0.625-2.5 µM"}, "HepG2 [4]": {"tested_on": "HepG2", "assay": "Inhibition of insulin-resistance in insulin-resistant human HepG2 cells assessed as increase in insulin receptor phosphorylation pretreated for 24 hrs followed by compound washout and further addition of insulin measured after 20 mins by Western blot analysis", "format": "functional, cell-based", "conditions": "dose 0.625-2.5 µM"}, "[5]": {"target": "T1, Tyrosine-protein phosphatase non-receptor type 11 (Homo sapiens, UniProt Q06124)", "T1 sequence (Q06124 whole entry)": "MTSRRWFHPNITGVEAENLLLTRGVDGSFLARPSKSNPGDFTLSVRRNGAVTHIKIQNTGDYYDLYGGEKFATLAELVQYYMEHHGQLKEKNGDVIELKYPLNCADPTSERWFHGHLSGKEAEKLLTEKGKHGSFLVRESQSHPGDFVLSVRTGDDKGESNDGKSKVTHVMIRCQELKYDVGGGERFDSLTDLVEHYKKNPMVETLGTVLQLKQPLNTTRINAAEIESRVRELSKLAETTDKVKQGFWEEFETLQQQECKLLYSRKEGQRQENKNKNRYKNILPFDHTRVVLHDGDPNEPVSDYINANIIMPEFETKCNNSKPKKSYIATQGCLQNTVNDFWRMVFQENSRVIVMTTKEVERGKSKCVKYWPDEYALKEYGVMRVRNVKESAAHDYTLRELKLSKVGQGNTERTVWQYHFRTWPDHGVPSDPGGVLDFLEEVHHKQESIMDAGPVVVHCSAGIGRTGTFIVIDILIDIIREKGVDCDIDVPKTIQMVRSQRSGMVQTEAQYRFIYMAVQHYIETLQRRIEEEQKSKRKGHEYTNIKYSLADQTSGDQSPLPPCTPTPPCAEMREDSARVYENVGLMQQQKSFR", "assay": "Inhibition of SHP2 (unknown origin) using pNPP as substrate incubated for 30 mins by spectrophotometry"}, "[6]": {"assay": "Toxicity in BKD db/db mouse assessed as effect on subcutaneous fat weight at 40 to 80 mg/kg/day, po qd for 8 weeks", "format": "organism-based", "conditions": "in vivo, 1344 h, dose 40-80 mg/kg/day"}, "Mus musculus [7]": {"tested_on": "Mus musculus", "assay": "Hypoglycemic activity in BKD db/db mouse assessed as increase in AKT phosphorylation in skeletal muscle at 40 to 80 mg/kg/day, po for 8 weeks by Western blot analysis", "format": "functional, organism-based", "conditions": "dose 40-80 mg/kg/day"}, "Mus musculus [8]": {"tested_on": "Mus musculus", "assay": "Hypoglycemic activity in BKD db/db mouse assessed as regular arrangement of liver cells at 40 to 80 mg/kg/day, po for 8 weeks by H and E staining based analysis", "format": "functional, organism-based", "conditions": "dose 40-80 mg/kg/day"}, "[9]": {"assay": "Acute toxicity in Kunming mouse assessed as behavioural changes at 2000 mg/kg, po measured for 14 days", "format": "organism-based", "conditions": "in vivo, 336 h, time 14 day"}, "[10]": {"assay": "Toxicity in BKD db/db mouse assessed as effect on body weight at 40 to 80 mg/kg/day, po qd for 8 weeks", "format": "organism-based", "conditions": "in vivo, 1344 h, dose 40-80 mg/kg/day"}, "Mus musculus [11]": {"tested_on": "Mus musculus", "assay": "Hypoglycemic activity in BKD db/db mouse assessed as increase in insulin receptor phosphorylation in skeletal muscle at 40 to 80 mg/kg/day, po for 8 weeks by Western blot analysis", "format": "functional, organism-based", "conditions": "dose 40-80 mg/kg/day"}, "[12]": {"target": "T2, Tyrosine-protein phosphatase non-receptor type 1 (Homo sapiens, UniProt P18031)", "T2 sequence (P18031 whole entry)": "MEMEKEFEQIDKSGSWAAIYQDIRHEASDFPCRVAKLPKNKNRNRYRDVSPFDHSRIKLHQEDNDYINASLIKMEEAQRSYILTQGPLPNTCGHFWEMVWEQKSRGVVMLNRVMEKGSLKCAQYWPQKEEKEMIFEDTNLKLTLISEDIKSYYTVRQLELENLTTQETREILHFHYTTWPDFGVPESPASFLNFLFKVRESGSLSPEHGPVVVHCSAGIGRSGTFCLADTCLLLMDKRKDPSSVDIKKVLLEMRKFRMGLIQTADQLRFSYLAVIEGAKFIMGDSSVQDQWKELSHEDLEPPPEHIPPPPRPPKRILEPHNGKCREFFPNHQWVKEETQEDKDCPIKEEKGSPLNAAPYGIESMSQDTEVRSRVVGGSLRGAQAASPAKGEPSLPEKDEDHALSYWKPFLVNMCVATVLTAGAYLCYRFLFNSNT", "assay": "Allosteric inhibition of PTP1B (unknown origin) using pNPP as substrate incubated for 30 mins by spectrophotometry"}, "[13]": {"target": "T3, Tyrosine-protein phosphatase non-receptor type 1 (Homo sapiens) (UniProt P18031)", "T3 sequence (whole entry)": "T2 sequence (P18031 whole entry)", "assay": "Induction of thermal stabilization of PTP1B in human HepG2 cells at 2.5 u incubated for 6 hrs followed by heat exposure at 51 to 65 degreeC for 4 mins by CETSA", "format": "cell-based"}, "[14]": {"assay": "Toxicity in BKD db/db mouse assessed as effect on kidney weight at 40 to 80 mg/kg/day, po qd for 8 weeks", "format": "organism-based", "conditions": "in vivo, 1344 h, dose 40-80 mg/kg/day"}, "3T3-L1": {"tested_on": "3T3-L1", "assay": "Inhibition of insulin-resistance in insulin-resistant mouse 3T3-L1 cells assessed as increase in AKT phosphorylation pretreated for 24 hrs followed by compound washout and further addition of insulin measured after 20 mins by Western blot analysis", "format": "functional, cell-based", "conditions": "dose 0.625-2.5 µM"}, "Mus musculus [15]": {"tested_on": "Mus musculus", "assay": "Hypoglycemic activity in BKD db/db mouse assessed as decrease in blood glucose level at 40 to 80 mg/kg/day, po for 7 weeks followed by insulin injection by […] method", "format": "functional, organism-based", "conditions": "dose 40-80 mg/kg/day"}, "Hepatocyte": {"tested_on": "Hepatocyte", "assay": "Inhibition of insulin-resistance in insulin-resistant C57BL/J mouse […] primary hepatocytes assessed as increase in AKT phosphorylation pretreated for 24 hrs followed by compound washout and further addition of insulin measured after 20 mins by Western blot analysis", "format": "functional, cell-based", "conditions": "dose 0.625-2.5 µM"}, "Mus musculus [16]": {"tested_on": "Mus musculus", "assay": "Hypoglycemic activity in BKD db/db mouse assessed as decrease in serum insulin level at 40 to 80 mg/kg/day, po qd for 7 weeks", "format": "functional, organism-based", "conditions": "dose 40-80 mg/kg/day"}, "HepG2 [17]": {"tested_on": "HepG2", "assay": "Induction of glucose uptake in human HepG2 cells cultured in low glucose medium containing compound for 24 hrs", "format": "functional, cell-based", "conditions": "dose 0.625-2.5 µmol/L"}, "[18]": {"target": "T2, Tyrosine-protein phosphatase non-receptor type 1", "assay": "Allosteric inhibition of recombinant human PTP1B (1 to 321 residues) using pNPP as substrate preincubated for 5 mins followed by substrate addition measured after 10 mins"}}, "note": "Calls of active or inactive are those of the source. No cut-off for these calls is given here."}
{"smiles": "CCOc1ccc(Oc2ccc(C(=O)/C=C/c3cc(O)c(O)c(Br)c3Br)cc2)cc1", "values": [{"measurement": "Activity", "setting": "Mus musculus [1]", "value": "Active"}, {"measurement": "Activity", "setting": "Mus musculus [2]", "value": "Active"}, {"measurement": "Activity", "setting": "[3]", "value": "Non-toxic"}, {"measurement": "inhibition", "setting": "C2C12", "value": "Dose-dependent-effect"}, {"measurement": "inhibition", "setting": "HepG2 [4]", "value": "Dose-dependent-effect"}, {"measurement": "IC50", "setting": "[5]", "value": "> 20", "unit": "µM"}, {"measurement": "Activity", "setting": "[6]", "value": "Non-toxic"}, {"measurement": "Activity", "setting": "Mus musculus [7]", "value": "Active"}, {"measurement": "Activity", "setting": "Mus musculus [8]", "value": "Active"}, {"measurement": "Activity", "setting": "[9]", "value": "Non-toxic"}, {"measurement": "Activity", "setting": "[10]", "value": "Non-toxic"}, {"measurement": "Activity", "setting": "Mus musculus [11]", "value": "Active"}, {"measurement": "IC50", "setting": "[12]", "value": 1060, "unit": "nM"}, {"measurement": "Activity", "setting": "[13]", "value": "Active"}, {"measurement": "Activity", "setting": "[14]", "value": "Non-toxic"}, {"measurement": "inhibition", "setting": "3T3-L1", "value": "Dose-dependent-effect"}, {"measurement": "Activity", "setting": "Mus musculus [15]", "value": "Active"}, {"measurement": "inhibition", "setting": "Hepatocyte", "value": "Dose-dependent-effect"}, {"measurement": "Activity", "setting": "Mus musculus [16]", "value": "Active"}, {"measurement": "Activity", "setting": "HepG2 [17]", "value": "Dose-dependent-effect"}, {"measurement": "Ki", "setting": "[18]", "value": 2330, "unit": "nM"}]}
